For assay [1], the target named is T1, GLP1R (Homo sapiens, UniProt P43220). The experiment in a line: cAMP assay in CHO cells stably expressing hGLP-1R. Particulars: CHO cells stably expressing hGLP-1R (Table 2), read-out: CHO cAMP stable EC50. Also on record: expressed in transfected cells; host or cells: CHO cells stably transfected. The format is cell-based. How it is done:
GLP-1R-mediated agonist activity was determined with a cell-based functional assay utilizing an HTRF (Homogeneous Time-Resolved Fluorescence) cAMP detection kit (cAMP Dynamic 2 Assay Kit; CisBio cat #62AM4PEC) that measures cAMP levels in the cell. The method is a competitive immunoassay between native cAMP produced by the cells and exogenous cAMP labeled with the dye d2. The tracer binding is visualized by a mAb anti-cAMP labeled with Cryptate. The specific signal (i.e., energy transfer) is inversely proportional to the concentration of cAMP in either standard or experimental sample.
Following the 30 minute incubation, 5 μL of labeled d2 cAMP and 5 μL of anti-cAMP antibody (both diluted 1:20 in cell lysis buffer; as described in the manufacturer's assay protocol) were added to each well of the assay plate. […] Raw data were converted to nM cAMP by interpolation from a cAMP standard curve (as described in the manufacturer's assay protocol) and the percent effect was determined relative to a saturating concentration of the full agonist GLP-17-37 (10 nM) included on each plate. EC50 determinations were made from agonist dose-response curves analyzed with a curve fitting program using a 4-parameter logistic dose response equation. […]
(In general: cAMP levels reflect the balance of adenylyl cyclase and phosphodiesterase activity.)
Target sequence in this assay (P43220 24-463): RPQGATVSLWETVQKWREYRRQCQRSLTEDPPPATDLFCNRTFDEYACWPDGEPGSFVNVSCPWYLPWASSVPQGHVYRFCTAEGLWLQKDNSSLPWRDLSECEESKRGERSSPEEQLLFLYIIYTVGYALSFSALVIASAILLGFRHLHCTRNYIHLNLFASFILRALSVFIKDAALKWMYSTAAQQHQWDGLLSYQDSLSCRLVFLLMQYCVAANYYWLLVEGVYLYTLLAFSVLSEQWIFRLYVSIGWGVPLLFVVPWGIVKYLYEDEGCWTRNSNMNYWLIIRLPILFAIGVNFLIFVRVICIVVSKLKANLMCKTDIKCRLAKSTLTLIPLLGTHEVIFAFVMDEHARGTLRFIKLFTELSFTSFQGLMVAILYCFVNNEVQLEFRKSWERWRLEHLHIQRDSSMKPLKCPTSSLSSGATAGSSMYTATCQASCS

Assay [2] deals with T1, GLP1R. Briefly: GLP1R cAMP assay (HTRF), HEK293/GLP-1R/CRE/Luc, Clone 4.
Target sequence in this assay (P43220 24-463): as above
Assay [3] concerns the target T1, GLP1R. Also on record: Emax: dose or concentration left out as unconfirmed. Particulars: for Emax: CHO-K1, […], read-out: β-arrestin recruitment Bmax (%). On the technique in general: Activated receptors often draw arrestin, which recruitment assays turn into a signal.
Target sequence in this assay (P43220 24-463): as above
Target sequence in this assay (P32121 whole entry partner): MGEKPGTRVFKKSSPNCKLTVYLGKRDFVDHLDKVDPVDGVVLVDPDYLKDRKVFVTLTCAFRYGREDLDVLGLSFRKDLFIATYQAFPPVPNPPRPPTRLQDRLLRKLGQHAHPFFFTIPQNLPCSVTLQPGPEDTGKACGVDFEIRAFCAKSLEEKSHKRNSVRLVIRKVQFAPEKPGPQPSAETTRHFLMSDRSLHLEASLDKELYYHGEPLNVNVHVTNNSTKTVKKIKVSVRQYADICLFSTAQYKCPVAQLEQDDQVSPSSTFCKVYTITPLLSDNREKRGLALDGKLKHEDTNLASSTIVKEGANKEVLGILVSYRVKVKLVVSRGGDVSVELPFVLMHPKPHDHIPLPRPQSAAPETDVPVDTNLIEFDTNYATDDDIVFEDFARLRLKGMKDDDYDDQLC
Protocol: Frozen cells were quickly thawed and 10 mL of cell plating medium (provided by the kit) was added to thawed cells. Cells were stored in a 37° C. incubator under 5% CO2 and kept for approximately 48 hours until ready to run the assay.
Reference and test compounds were dissolved in 100% DMSO. […] 5 μL of this solution was added to 20 μL cell medium in assay plate for a final top concentration of 10 μM. Plates were then incubated at 37° C. under 5% CO2 for 90 min.
Following 90 min incubation, detection reagents were made up by combining 1 part Galacton Star Substrate with 5 parts Emerald II™ Solution, and 19 parts of PathHunter Cell Assay Buffer, respectively. 12.5 μl detection reagent was added to each well. The plates were then incubated at room temperature in dark for 60 min. Plates were then read on Envision for 0.1 sec/well.
Cells were plated at a density of 1000 or 2000 cells/20 μL/well. Frozen cells were quickly thawed and added to 10 mL of cell plating medium. Cells were stored in a 37 degree incubator under 5% CO2 and left for approximately 48 hours until ready to run the assay
Prepare 10× concentration of an agonist in serum free DMEM, and add all solutions into the compound plate. 2.5 μL of this solution was added to 20 μL cell medium in assay plate for a final top concentration of 10 μM. Plates were incubated at 37° C. under 5% CO2 for 30 min. An additional 2.5 μL of Buffer was added to the entire plate for agonist mode and incubated at 37° C. for another 90 min.
Following 90 min incubation, detection reagents were made up as described. 12.5 μL was added to all wells. The plates were then incubated at room temperature in dark for 60 min. Plates were then read on Envision for 0.1 sec/well.
Data analysis: GraphPad Prism 6 was used for establishment of progression curve. EC50s or IC50s were determined by 4-parameter logistic dose response equation.
The target in assay [4] is T1, GLP1R. Briefly: β-Arrestin-mediated GLP1R internalization assay (PathHunter U2OS cells). It is filed as cell-based. Also on record: host or cells: PathHunter engineered U2OS cells. Conditions: averaged Bmax where applicable, Percentage of Control GLP-1 (7-37), top 10 μM, 180 min. The text has this: A similar assay can also be used to assess the extent of signal attenuation due to GLP-1R internalization (the Internalization Assay). In this assay, activated GLP1R Internalization cells were engineered to co-express an untagged GLP1R, Enzyme Acceptor (EA) tagged β-Arrestin, and a ProLink™ (PK) tag localized to the endosomes. Activation of the GLP1R induces β-Arrestin recruitment, which leads to internalization of the Receptor/Arrestin-EA complex in PK-tagged endosomes. This forces complementation of the two β-galactosidase enzyme fragments (EA and PK) to form a functional enzyme that hydrolyzes substrate to generate a chemiluminescent signal.
Frozen cells were quickly thawed and 10 mL of cell plating medium (provided by the kit) was added to thawed cells. Cells were stored in a 37° C. incubator and kept for approximately 48 hours until ready for the assay.
Reference and test compounds were dissolved in 100% DMSO. […] 5 μL of this solution was added to 20 μL cell medium in assay plate for a final top concentration of 10 μM. Plates were incubated at 37° C. for 180 min.
Following 180 min incubation, detection reagents were made up by combining 1 part Galacton Star Substrate with 5 parts Emerald II™ Solution, and 19 parts of PathHunter Cell Assay Buffer, respectively. 12.5 μL detection reagent was added to each well. The plates were then incubated at room temperature for 60 min. Plates were then read on Envision for 0.1 sec/well.
EC50 determinations were made from agonist dose-response curves analyzed with a curve fitting program using a 4-parameter logistic dose response equation.
Target sequence in this assay (P43220 24-463): as the sequence (P43220 24-463) above
Target sequence in this assay (P32121 whole entry partner): as the sequence (P32121 whole entry partner) above

This is an account of results in patent US10954221B2, “GLP-1R agonists and uses thereof” (QILU REGOR THERAPEUTICS INC., priority 2019, dated 2021).

SMILES strings stand for the structures.

Take `O=C(O)c1ccc2nc(Cc3ccc(-c4cccc(OCc5ccc(Cl)cc5F)n4)cc3F)n(C[C@@H]3CCO3)c2n1` [Compound 287, (S)-2-(4-(6-((4-chloro-2-fluorobenzyl)oxy)pyridin-2-yl)-2-fluorobenzyl)-3-(oxetan-2-ylmethyl)-3H-imidazo[4,5-b]pyridine-5-carboxylic acid]: the EC50 on GLP1R [1] was 15 to 150 nM.

On to `O=C(O)c1ccc2nc(Cc3cc(F)c(-c4cccc(OCc5ccc(F)cn5)n4)cc3F)n(C[C@@H]3CCO3)c2n1` [Compound 298, (S)-2-(2,5-difluoro-4-(6-((5-fluoropyridin-2-yl)methoxy)pyridin-2-yl)benzyl)-3-(oxetan-2-ylmethy)-3H-imidazo[4,5-b]pyridine-5-carboxylic acid], for which the EC50 was less than 15 nM at GLP1R [2] and 15 to 150 nM on GLP1R [1].

As for `O=C(O)c1ccc2nc(Cc3cc(F)c(-c4cccc(OCc5ccc(Cl)cn5)n4)cc3F)n(C[C@@H]3CCO3)c2n1` [Compound 296, (S)-2-(4-(6-((5-chloropyridin-2-yl)methoxy)pyridin-2-yl)-2,5-difluorobenzyl)-3-(oxetan-2-ylmethyl)-3H-imidazo[4,5-b]pyridine-5-carboxylic acid], the 50% effective concentration (EC50) at GLP1R [2] and at GLP1R [1] was less than 15 nM each time.

In the case of `N#Cc1ccc(COc2cccc(-c3ccc(Cc4nc5ccc(C(=O)O)nc5n4C[C@@H]4CCO4)c(F)c3)n2)nc1` [Compound 288, (S)-2-(4-(6-((5-cyanopyridin-2-yl)methoxy)pyridin-2-yl)-2-fluorobenzyl)-3-(oxetan-2-ylmethyl)-3H-imidazo[4,5-b]pyridine-5-carboxylic acid], the half-maximal effective concentration (EC50) on GLP1R [2] was less than 15 nM; on GLP1R [1], 15 to 150 nM.

For the molecule `O=C(O)c1ccc2nc(Cc3ccc(-c4nccc(OCc5ccc(Cl)cc5F)n4)cc3F)n(C[C@@H]3CCO3)c2c1` [Compound 86, (S)-2-(4-(4-((4-chloro-2-fluorobenzyl)oxy)pyrimidin-2-yl)-2-fluorobenzyl)-1-(oxetan-2-ylmethyl)-1H-benzo[d]imidazole-6-carboxylic acid], the Emax on GLP1R [3] amounted to 33.5%. Besides, the concentration giving a half-maximal response (EC50) at GLP1R [2] was less than 15 nM. Also, the “β-arrestin internalization Bmax (POC)” value on GLP1R [4] amounted to 41.8 POC.

As to `O=C(O)c1ccc2nc(Cc3ccc(-c4cccc(OCc5ccc(Cl)cc5F)n4)cc3)n(C[C@@H]3CCO3)c2c1` [Compound 94, (S)-2-(4-(6-((4-chloro-2-fluorobenzyl)oxy)pyridin-2-yl)benzyl)-1-(oxetan-2-ylmethyl)-1H-benzo[d]imidazole-6-carboxylic acid], the “β-arrestin recruitment Bmax (%)” value on GLP1R [3] (partial maximum relative effect at the highest concentration tested (top 10 μM), relative to Bmax of GLP-1 (7-37), PathHunter CHO-K1 GLP1R β-Arrestin cells) is 33.3%. Further, the concentration for a half-maximal effect (EC50) at GLP1R [2] is less than 15 nM. Moreover, the “β-arrestin internalization Bmax (POC)” value on GLP1R [4] came to 27.3 ± 7.75 POC.

As for `O=C(O)c1ccc2nc(Cc3ccc(-c4cccc(OCc5ccc(Cl)cc5F)n4)cn3)n(C[C@@H]3CCO3)c2c1` [Compound 101, (S)-2-((6-((4-chloro-2-fluorobenzyl)oxy)-[2,3′-bipyridin]-6′-yl)methyl)-1-(oxetan-2-ylmethyl)-1H-benzo[d]imidazole-6-carboxylicacid], on GLP1R [3], the Emax worked out at 1.05%. Also, the EC50 on GLP1R [2] is greater than 1000 nM. Also, the “β-arrestin internalization Bmax (POC)” value on GLP1R [4] came to 3.08 POC.

On to `O=C(O)c1ccc2nc(Cc3ccc(-c4cccc(OCc5ccc(Cl)cc5F)n4)cc3F)n(C[C@@H]3CCO3)c2n1` [Compound 281, 2-[[4-[6-[(4-chloro-2-fluoro-phenyl)methoxy]-2-pyridyl]-2-fluoro-phenyl]methyl]-3-[[(2S)-oxetan-2-yl]methyl]imidazo[4,5-b]pyridine-5-carboxylic acid], for which the Emax at GLP1R [3] is 48.5 ± 6.64%. Besides, the 50% effective concentration (EC50) at GLP1R [2] is less than 15 nM. Moreover, on GLP1R [4], the “β-arrestin internalization Bmax (POC)” value came out at 36.5 POC.

Take `N#Cc1ccc(COc2cccc(-c3ccc(Cc4nc5ccc(C(=O)O)cc5n4C[C@@H]4CCO4)cc3F)n2)c(F)c1` [Compound 75, (S)-2-(4-(6-(4-cyano-2-fluorobenzyloxy)pyridin-2-yl)-3-fluorobenzyl)-1-(oxetan-2-ylmethyl)-1H-benzo[d]imidazole-6-carboxylic acid]: the Emax at GLP1R [3] was determined as 30.4 ± 1.15%. Further, the EC50 on GLP1R [2] is less than 15 nM. Also, the “β-arrestin internalization Bmax (POC)” value at GLP1R [4] was 20.8 ± 10.2 POC.

On to `O=C(O)c1ccc2nc(Cc3ccc(-c4cccc(OCc5ccc(Cl)cc5F)n4)c(F)c3)n(C[C@@H]3CCO3)c2c1F` [Compound 308, (S)-2-(4-(6-((4-chloro-2-fluorobenzyl)oxy)pyridin-2-yl)-3-fluorobenzyl)-7-fluoro-1-(oxetan-2-ylmethyl)-1H-benzo[d]imidazole-6-carboxylic acid], for which, on GLP1R [3], the Emax is 62.8 ± 4.09%. At GLP1R [2], the concentration for a half-maximal effect (EC50) was less than 15 nM. The “β-arrestin internalization Bmax (POC)” value on GLP1R [4] turned out to be 48.8 ± 6.11 POC.

As to `N#Cc1ccc(COc2cccc(-c3ccc(Cc4nc5ccc(C(=O)O)c(F)c5n4C[C@@H]4CCO4)cc3F)n2)c(F)c1` [Compound 307, (S)-2-(4-(6-((4-cyano-2-fluorobenzyl)oxy)pyridin-2-yl)-3-fluorobenzyl)-7-fluoro-1-(oxetan-2-ylmethyl)-1H-benzo[d]imidazole-6-carboxylic acid], the Emax on GLP1R [3] came out at 46.8 ± 7.21%. At GLP1R [2], this molecule had an EC50 of less than 15 nM. Also, on GLP1R [4], the “β-arrestin internalization Bmax (POC)” value is recorded as 33.8 ± 2.73 POC.

As for `O=C(O)c1ccc2nc(Cc3ccc(-c4cccc(OCc5ccc(Cl)cc5F)n4)nc3)n(C[C@@H]3CCO3)c2c1` [Compound 100, (S)-2-((6′-(4-chloro-2-fluorobenzyloxy)-2,2′-bipyridin-5-yl)methyl)-1-(oxetan-2-ylmethyl)-1H-benzo[d]imidazole-6-carboxylic acid], the Emax at GLP1R [3] was 0.971%. Further, on GLP1R [2], the 50% effective concentration (EC50) was greater than 1000 nM. At GLP1R [4], the “β-arrestin internalization Bmax (POC)” value worked out at 0.881 POC.

In the case of `O=C(O)c1ccc2nc(Cc3ccc(-c4nc(OCc5ccc(Cl)cc5F)ncc4F)cc3F)n(C[C@@H]3CCO3)c2c1` [Compound 91, (S)-2-(4-(2-(4-chloro-2-fluorobenzyloxy)-5-fluoropyrimidin-4-yl)-2-fluorobenzyl)-1-(oxetan-2-ylmethyl)-1H-benzo[d]imidazole-6-carboxylic acid], the Emax at GLP1R [3] turned out to be 35.8%. Moreover, the EC50 at GLP1R [2] was less than 15 nM. For the same molecule, the “β-arrestin internalization Bmax (POC)” value at GLP1R [4] is listed as 21.6 POC.

For the molecule `O=C(O)c1ccc2nc(Cc3ccc(-c4nc(OCc5ccc(Cl)cc5F)ncc4F)c(F)c3)n(C[C@@H]3CCO3)c2c1` [Compound 82, (S)-2-(4-(2-(4-chloro-2-fluorobenzyloxy)-5-fluoropyrimidin-4-yl)-3-fluorobenzyl)-1-(oxetan-2-ylmethyl)-1H-benzo[d]imidazole-6-carboxylic acid], the Emax on GLP1R [3] worked out at 20.1%. The concentration giving a half-maximal response (EC50) on GLP1R [2] is less than 15 nM. Further, at GLP1R [4], the “β-arrestin internalization Bmax (POC)” value is recorded as 13.8 POC.

For `O=C(O)c1ccc2nc(Cc3ccc(-c4cc(OCc5ccc(Cl)cc5F)ccc4F)c(F)c3)n(C[C@@H]3CCO3)c2c1` [Compound 79, (S)-2-((5′-((4-chloro-2-fluorobenzyl)oxy)-2,2′-difluoro-[1,1′-biphenyl]-4-yl)methyl)-1-(oxetan-2-ylmethyl)-1H-benzo[d]imidazole-6-carboxylic acid], the Emax on GLP1R [3] was determined as 19.7%. For the same molecule, at GLP1R [2], the EC50 is 15 to 150 nM. At GLP1R [4], the “β-arrestin internalization Bmax (POC)” value amounted to 9.25 POC.

Consider `O=C(O)c1ccc2nc(Cc3ccc(-c4cccc(OCc5ccc(Cl)cc5F)c4)c(F)c3)n(C[C@@H]3CCO3)c2c1` [Compound 76, (S)-2-((3′-((4-chloro-2-fluorobenzyl)oxy)-2-fluoro-[1,1′-biphenyl]-4-yl)methyl)-1-(oxetan-2-ylmethyl)-1H-benzo[d]imidazole-6-carboxylic acid], for which the Emax on GLP1R [3] is 25.1%. For the same molecule, on GLP1R [2], the concentration for a half-maximal effect (EC50) was less than 15 nM. Further, the “β-arrestin internalization Bmax (POC)” value at GLP1R [4] came to 21.6 POC.

Turning to `O=C(O)c1ccc2nc(Cc3ccc(-c4ccc(F)c(OCc5ccc(Cl)cc5F)c4)cc3F)n(C[C@@H]3CCO3)c2c1` [Compound 85], on GLP1R [3], the Emax amounted to 37%. Also, on GLP1R [2], the EC50 is less than 15 nM. Also, the “β-arrestin internalization Bmax (POC)” value at GLP1R [4] is 29.5 POC.

As a reminder, the EC50 is the concentration giving half of the maximal effect.
